Assay results as given in ChEMBL document CHEMBL1157539, “Thousands of chemical starting points for antimalarial lead identification” (Nature, 2010).

Tested on: Plasmodium falciparum
Test: GSK_TCMDC: Inhibition of Plasmodium falciparum 3D7 in whole erythrocytes, using parasite LDH activity as an index of growth.
Assay type: functional, organism-based

Row | SMILES | XC50 (Plasmodium falciparum, 3D7) [nM] | XC50 [nM]
1 | CNC(=O)C1Cc2c([nH]c3ccc(Cl)cc23)C2(CCN(CCc3ccccc3)CC2)N1 (configuration not stated) | 893 | –
2 | CC(C)Cc1ccc(N2CCN(CCCCNC(=O)c3ccc(NC(=O)c4cc(C(F)(F)F)cc(C(F)(F)F)c4)cc3)CC2)cc1 | 179 | –
3 | CCOC(=O)c1ccc(NC(=O)N(Cc2ccc(-c3ccc(CN4CCNCC4)cc3)cc2)Cc2cccnc2)cc1 | 926 | –
4 | Cc1cc(N(C)C2CCN(CC3CCCCC3)C2)nc(Nc2ccc(Cl)cc2)n1 (configuration not stated) | 679 | –
5 | CS(=O)(=O)N1CC2(CCN(CCC(NC(=O)NCc3ccc(Cl)c(Cl)c3)c3ccc(Cl)c(Cl)c3)CC2)c2ccccc21 (configuration not stated) | 799 | –
6 | NC(=O)CCC(NC(=O)CNC(=O)Nc1cccc(C(F)(F)F)c1)C(=O)O (configuration not stated) | 803 | –
7 | Cc1c(CNCCCNc2nc3ccccc3[nH]2)[nH]c2cc(Cl)cc(Cl)c12 | 232 | –
8 | CC(C)(C)c1ccc(CNC(=O)/C=C/c2ccc(-c3nc4cc(C(C)(C)C)ccc4[nH]3)cc2)cc1 | 545 | –
9 | O=C(Nc1ccc(-c2cccc(-c3nc4cc(C(F)(F)F)ccc4[nH]3)c2)cc1)Nc1ccc(F)c(F)c1F | 706 | –
10 | Cc1ccc(Cn2c(N3CCC(C(=O)NCc4cccs4)CC3)nc3ccccc32)cc1 | 748 | –
11 | Nc1nc(N)c2c(ccc3[nH]ccc32)n1 | 1080 | –
12 | CC(C)(C)c1cc(C(=O)N2CCN(c3nccnc3C#N)CC2)n(Cc2ccccc2)n1 | 758 | –
13 | CCOc1c(OC)ccc2c1CCN(CCN1CCC(NC(=O)c3ccc(-c4cccc(C(F)(F)F)c4C(F)(F)F)cc3)CC1)C2 | 728 | –
14 | CC(=O)Nc1nc(C(=O)Nc2ccc(-c3ccc(-c4nc5ccccc5[nH]4)cc3)cc2)cs1 | 150 | –
15 | CCOc1ccccc1C1C(C(=O)C(C)(C)C)N2c3ccc(Br)cc3C=CC2C12C(=O)c1ccccc1C2=O (configuration not stated) | 853 | –
16 | CC1(C)[C@H]2CC[C@@H](CNc3nc(NCCc4c[nH]cn4)nc(NCc4cc(F)ccc4F)n3)[C@@H]1C2 | 311 | –
17 | CCCNCc1ccc(-c2ccc(CN(Cc3cnc(C)cn3)C(=O)c3nn(-c4ccccc4)nc3C)cc2)nc1 | 419 | –
18 | CN(C)CCCN1CCN(Cc2ccc(-c3ccc(-c4nc5ccccc5[nH]4)s3)cc2)CC1 | 820 | –
19 | COc1cc(CCNC(=O)Cc2ccc3ccccc3c2)ccc1OCc1ccccc1 | 1020 | –
20 | COc1c(OC)c(OC)c2ccccc2c1CCNCCCCNCCc1c(OC)c(OC)c(OC)c2ccccc12 | 612 | –
21 | COc1ccc(C2=CCN(c3ccc(Cl)c(Cl)c3)C2=O)cc1OCCN1CCCCC1 | 784 | –
22 | Nc1cc(-c2ccc3ccccc3c2)nc2ccccc12 | 699 | –
23 | COc1cccc(Cc2c(C)nc3nc(N)nc(N)c3c2C)c1 | 879 | –
24 | O=C(/C=C/c1c[nH]c2ccccc12)NCCCCCN1CCC(c2c[nH]c3ccccc23)CC1 | 932 | –

Row | SMILES | XC50 (Plasmodium falciparum, 3D7) [nM] | XC50 [nM]
25 | Cc1ccc(C[C@@H](C)NC[C@H](O)c2cccc(C(F)(F)F)c2)cc1 | 876 | –
26 | N#Cc1cccc(C(=O)Nc2cccc(-c3cccc(CN4CCNCC4)c3)c2)c1 | 947 | –
27 | CC(C)c1sc(N2CCN(C)CC2)nc1C(=O)NCCc1ccc(Br)cc1 | 1130 | –
28 | COC(=O)CNC(c1ccccc1)c1cc(Br)ccc1NC(=O)c1ccccc1Br (configuration not stated) | 988 | –
29 | CCCCc1ccc2[nH]cc(C3=CCN(C)CC3)c2c1Br | 627 | –
30 | CNCCN(C)C(=O)Oc1c(Cl)c(C)nc(C)c1-c1ccc(Oc2ccc(OC(F)(F)F)cc2)cc1 | 127 | –
31 | COCCNCc1cccc(-c2ccc3c(Nc4cc(O)c(Cl)cc4F)ccnc3c2)c1 | 114 | –
32 | Cc1[nH]c2cc(F)ccc2c(=O)c1Cc1ccc(Cl)cc1.Cc1[nH]c2cccc(F)c2c(=O)c1Cc1ccc(Cl)cc1 | 348 | 232
33 | O=C(NC1CCN(Cc2ccc(O)cc2)CC1)c1ccc(Cl)c(Cl)c1 | 1180 | –
34 | CC(=O)Nc1ccc(Nc2c3ccccc3nc3ccccc23)cc1 | 1020 | –
35 | Oc1ccccc1CNCc1ccc(-c2cnc(N3CCCC(c4ccccc4)C3)nc2)cc1 (configuration not stated) | 689 | –
36 | COc1cccc(CNC(=O)[C@@H]2CN(C(=O)c3ccccc3)CCN2)c1 | 1160 | –
37 | CCOC(=O)c1cc(=O)c2ccc(OCC#N)cc2o1 | 1030 | –
38 | CC(C)CCN(Cc1cncn1Cc1cccc(C(F)(F)F)c1)C(=O)c1ccccc1C#N | 614 | –
39 | Nc1cc(-c2cccc(Cl)c2)nn1-c1ccnc2cc(Cl)ccc12 | 753 | –
40 | C=C(C)Cn1cc(C2CCN(CCCCNC(=O)c3sc(-c4ccc(Cl)cc4Cl)nc3CO)CC2)c2ccccc21 | 1150 | –
41 | CN(C)CCN(C)Cc1ccc(-c2ccc3c(Nc4ccc(Oc5ccccc5)cc4)ccnc3c2)o1 | 179 | –
42 | COc1cc2c(cc1C(F)(F)F)N(C(=O)Nc1cc(F)cc(-c3cncnc3)c1)CC2 | 500 | –
43 | COc1cccc(Nc2nc(C)cc(Nc3cccc(C#N)c3)n2)c1 | 1080 | –
44 | CN(C)CCCN(C)C(=O)c1cc2cc(-c3ccccc3)ccc2n1S(=O)(=O)c1ccccc1 | 462 | –
45 | CCCOc1ccc(C(=O)Nc2nonc2-c2ccc(OC)c(OC)c2)cc1 | 991 | –
46 | N=C(N)NN=CC(=O)Nc1cccc(C(F)(F)F)c1 | 1000 | –
47 | COc1ccc(Nc2nccc(-c3ccc(NC(=O)c4cc5cc(F)ccc5[nH]4)cc3)n2)cc1 | 630 | –
48 | COc1ccc(Br)cc1/C=C/C(=O)Nc1ccc(C2CCN(C)CC2)cc1 | 502 | –

Row | SMILES | XC50 (Plasmodium falciparum, 3D7) [nM] | XC50 [nM]
49 | Nc1c2c(nc3ccc(NC(=O)Cc4ccccc4)cc13)CCCC2 | 755 | –
50 | CC(C)c1ccc(NC(=O)c2ccc(NCCCN(C)Cc3ccccc3)c([N+](=O)[O-])c2)cc1 | 683 | –
51 | CCCCn1c(Sc2ccc(C#N)c([N+](=O)[O-])c2)nnc1-c1ccc(OC)cc1 | 1030 | –
52 | COC(=O)c1cccc(CNCc2cccc(-c3cccc(-c4nc5cc(C(F)(F)F)ccc5[nH]4)c3)c2)c1 | 172 | –
53 | Cc1cc(=NN=Cc2ccc(Cl)cc2)c2cc(C(F)(F)F)ccc2[nH]1 | 920 | –
54 | Nc1nc(O)c2cc(CN(C=O)c3ccc(C(=O)N[C@@H](CCC(=O)O)C(=O)O)cc3)ccc2n1 | 179 | –
55 | Nc1cccc(CNCc2cccc(-c3ccc(-c4nc5cc(C(F)(F)F)ccc5[nH]4)cc3)c2)c1 | 360 | –
56 | O=c1cc(NC[C@H]2CCC[C@@H]2NC2CCCc3c2[nH]c2ccccc32)[nH]c2ccccc12 (some centres not stated) | 786 | –
57 | O=[N+]([O-])c1ccc(N2CCCN(C(=S)Nc3ccc(F)cc3Br)CC2)nc1 | 302 | –
58 | CCc1cn2c3c(cc(C(=O)N[C@@H](Cc4cccc(F)c4)[C@H](O)CNC4CCOCC4)cc13)N(C)S(=O)(=O)CC2 | 68.1 | –
59 | CC[C@H](C)[C@H](NC(=O)[C@H](CC1CCCCC1)[C@H](CC)N(O)C=O)C(=O)Nc1ccccn1 | 176 | –
60 | COc1cc(-c2cc3cc(Cl)c(Cl)cc3[nH]2)ccc1C(=O)NCCC1CCCN1C (configuration not stated) | 969 | –
61 | CC(C)CNCc1ccc(-c2ccc(CNC3CCN(Cc4ccccc4)CC3)cc2)cc1 | 558 | –
62 | COc1cc(C)ccc1S(=O)(=O)N1CCCCC(c2ccc(C(F)(F)F)cc2)=N1 | 775 | –
63 | O=C(NCc1ccc(F)cc1)c1cnc(N2CCN(c3ccncc3)CC2)c(Cl)c1 | 1390 | –
64 | CCN(CCCN1CCCCC1)c1cc(C)nc(Nc2cc(Cl)cc(Cl)c2)n1 | 286 | –
65 | Cc1[nH]c(C)c(-c2ccc(-c3ccccc3Cl)nc2)c(=O)c1Br | 171 | –
66 | N#Cc1cnc2cc(-c3cnc(CNCCN4CCOCC4)s3)ccc2c1Nc1ccc(Oc2ccccc2)cc1 | 726 | –
67 | COc1ccccc1CNC(=O)c1cc(Br)cc(N2CCN(c3ccncc3)CC2)c1 | 946 | –
68 | CC1(C)NC(N)=NC(=N)N1OCCc1ccccc1 | 3.2 | –
69 | CCCN(Cc1nnc(-c2ccco2)o1)C(=O)C1CCCN(C(=O)c2ccc(Cl)cc2)C1 (configuration not stated) | 518 | –
70 | O=C(NC1CCCCC1)N(Cc1ccc(-c2ccc(CNC3CCCC3)cc2)cc1)C1CCN(Cc2ccccc2)CC1 | 780 | –
71 | O=c1cc(NCCC(CNCc2cc3ccccc3o2)NCc2cc(Br)cc(Br)c2)[nH]c2ccccc12 (configuration not stated) | 1210 | –
72 | Cc1cccc(-c2cc3cc(Nc4ccnc5cc(-c6nccs6)ccc45)ccc3[nH]2)c1 | 174 | –

Row | SMILES | XC50 (Plasmodium falciparum, 3D7) [nM] | XC50 [nM]
73 | CN(C)c1ccc(CN2CCC(CNC(=O)c3cc(-c4cccc(C(F)(F)F)c4)cs3)C2)cc1 (configuration not stated) | 882 | –
74 | N=C(N)NN=CC(=O)Nc1ccc(Br)cc1 | 884 | –
75 | COc1ccc(CCN2CCC(CN(C)Cc3cnn(-c4ccccc4)c3)CC2)cc1 | 1160 | –
76 | Cc1cc2c(cc1C(F)(F)F)N(C(=O)Nc1ccc(OCCN(C)C)c(C(F)(F)F)c1)CC2 | 905 | –
77 | Cc1nc(N/C(N)=N/C(=O)NC2CCCCC2)nc2ccccc12 | 791 | –
78 | O=C(Nc1cc(Cl)ccc1O)c1cnn2c(C(F)(F)F)cc(-c3cccs3)nc12 | 859 | –
79 | O=C(CCc1cccnc1)Nc1cccc(-c2ccc(-c3nc4cc(C(F)(F)F)ccc4[nH]3)cc2)c1 | 867 | –
80 | CC(C)CC(C)NC(=O)C1Cc2c([nH]c3ccc(F)cc23)C2(CCN(Cc3ccccc3)CC2)N1 (configuration not stated) | 970 | –
81 | O=C(Nc1cccc([N+](=O)[O-])c1)Nc1cccc(C(F)(F)F)c1 | 767 | –
82 | CN(C)CCN1CCN(CCCN2c3ccccc3Sc3ccc(C(F)(F)F)cc32)CC1 | 762 | –
83 | CCCCCCCN1CC[C@@H](C[C@H](N)Cc2ccnc3ccc(OC)cc23)[C@@H](CC)C1 | 1070 | –
84 | CC(C)(CNCc1ccc(C(F)(F)F)cc1)c1nc(-c2ccnc(N)n2)c(-c2ccc(Cl)c(O)c2)[nH]1 | 152 | –
85 | CC(=O)N(C)c1cccc(C(=O)Nc2cccc(-c3cccc(-c4nc5cccc(C)c5[nH]4)c3)c2)c1 | 617 | –
86 | C=CCCCNCC(NCCCNc1cc(=O)c2ccccc2[nH]1)c1cc(Br)cc(Br)c1 (configuration not stated) | 893 | –
87 | Oc1cccc(-c2nc(-c3ccccc3)c(-c3ccc(Oc4ccc(-c5[nH]c(-c6cccc(O)c6)nc5-c5ccccc5)cc4)cc3)[nH]2)c1 | 855 | –
88 | OC1CCC(Nc2ccc3ncc(-c4ccc5ccccc5c4)n3n2)CC1 (configuration not stated) | 978 | –
89 | O=C(C1CCCC1)N1CCOC(CCN2CCC(c3ccccc3)CC2)(c2ccc(Cl)c(Cl)c2)C1 (configuration not stated) | 937 | –
90 | CN1CCN(CCCN(C(=O)Nc2cc(C(F)(F)F)cc(C(F)(F)F)c2)c2ccccc2Cc2ccccc2)CC1 | 1130 | –
91 | CN1CCCc2cc(NC(=O)C=Cc3ccc(-c4ccc(F)cc4F)o3)ccc2C1 | 783 | –
92 | O=C(O)CCSc1ncnc2[nH]cnc12 | 129 | –
93 | CN1CCCc2ccc(NC(=O)c3cnc(-c4ccccc4)cn3)cc21 | 905 | –
94 | CN(c1cc(NC(=O)c2ccc(F)cc2)ccn1)C1CCN(Cc2cccc(C#N)c2)CC1 | 831 | –
95 | NCCCN(Cc1ccc(Cl)c(Cl)c1)C(=O)Nc1ccc(Cl)c(Cl)c1 | 898 | –
96 | CCNC(=O)Nc1cccc(-c2ccc(-c3nc4cccc(C)c4[nH]3)s2)c1 | 766 | –
